According to patent US20230278972A1, “SUBSTITUTED HALOALKYL SULFONANILIDE HERBICIDES” (FMC Corporation, priority 2020, published 2023):

What was measured:
[1] = system: barnyardgrass (Echinochloa crus-galli); test: Test A preemergence, barnyardgrass; format: in vivo; conditions: Echinochloa crus-galli, pre-emergence, 240 h
Procedure, shortened: (§1)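 Preemergence: seeded pots of loam plus sand received a directed soil spray. Postemergence: seedlings at one to two leaves, 2 to 10 cm high, were oversprayed. Each compound was formulated in a non-phytotoxic solvent mix that included a surfactant.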

[2] = system: kochia (Bassia scoparia); test: Test A preemergence, kochia; format: in vivo; conditions: Bassia scoparia, pre-emergence, 240 h
Procedure, shortened: as §1

[3] = system: ragweed (common ragweed, Ambrosia artemisiifolia); test: Test A preemergence, ragweed; format: in vivo; conditions: Ambrosia artemisiifolia, pre-emergence, 240 h
Procedure, shortened: as §1

[4] = system: Ryegrass, Italian (Italian ryegrass, Lolium multiflorum); test: Test A preemergence, Ryegrass, Italian; format: in vivo; conditions: Lolium multiflorum, pre-emergence, 240 h
Procedure, shortened: as §1

[5] = system: Foxtail, Giant (giant foxtail, Setaria faberi); test: Test A preemergence, Foxtail, Giant; format: in vivo; conditions: Setaria faberi, pre-emergence, 240 h
Procedure, shortened: as §1

[6] = system: barnyardgrass (Echinochloa crus-galli); test: Test A postemergence, barnyardgrass; format: in vivo; conditions: Echinochloa crus-galli, post-emergence, 240 h, read-out: Plant response rating, Barnyardgrass
Procedure, shortened: (§2)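 Preemergence: pigweed seeds in loam soil–sand blend received a directed soil spray of test chemicals in a non-phytotoxic solvent with surfactant. Postemergence: barnyardgrass, wheat and galium in pots of the same soil, 2 to 10 cm tall at one- to two-leaf stage, sprayed with the same formulation.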

[7] = system: kochia (Bassia scoparia); test: Test A postemergence, kochia; format: in vivo; conditions: Bassia scoparia, post-emergence, 240 h, read-out: Plant response rating, Kochia
Procedure, shortened: as §1

[8] = system: ragweed (common ragweed, Ambrosia artemisiifolia); test: Test A postemergence, ragweed; format: in vivo; conditions: Ambrosia artemisiifolia, post-emergence, 240 h, read-out: Plant response rating, Ragweed
Procedure, shortened: as §1

[9] = system: Ryegrass, Italian (Italian ryegrass, Lolium multiflorum); test: Test A postemergence, Ryegrass, Italian; format: in vivo; conditions: Lolium multiflorum, post-emergence, 240 h, read-out: Plant response rating, Ryegrass, Italian
Procedure, shortened: as §1

[10] = system: Foxtail, Giant (giant foxtail, Setaria faberi); test: Test A postemergence, Foxtail, Giant; format: in vivo; conditions: Setaria faberi, post-emergence, 240 h, read-out: Plant response rating, Foxtail, Giant
Procedure, shortened: as §1

[11] = system: pigweed (Amaranthus retroflexus); test: Test A postemergence, pigweed; format: in vivo; conditions: Amaranthus retroflexus, post-emergence, 240 h, read-out: Plant response rating, Pigweed
Procedure, shortened: as §1

[12] = system: wheat (Triticum aestivum); test: Test A postemergence, wheat; format: in vivo; conditions: Triticum aestivum, post-emergence, 240 h, read-out: Plant response rating, Wheat
Procedure, shortened: as §2

[13] = system: corn (Zea mays); test: Test A postemergence, corn; format: in vivo; conditions: Zea mays, post-emergence, 240 h, read-out: Plant response rating, Corn
Procedure, shortened: as §1

[14] = system: blackgrass (Alopecurus myosuroides); test: Test A postemergence, blackgrass; format: in vivo; conditions: Alopecurus myosuroides, post-emergence, 240 h, read-out: Plant response rating, Blackgrass
Procedure, shortened: as §1

[15] = system: galium (catchweed bedstraw, Galium aparine); test: Test A postemergence, galium; format: in vivo; conditions: Galium, post-emergence, 240 h, read-out: Plant response rating, Galium
Procedure, shortened: as §2

[16] = system: rice (Oryza sativa); test: Test B flooded paddy test, rice; conditions: 336 h, read-out: Plant response rating, Rice
[17] = system: ducksalad (Heteranthera limosa); test: Test B flooded paddy test, ducksalad; conditions: 336 h, read-out: Plant response rating, Ducksalad
[18] = system: barnyardgrass (Echinochloa crus-galli); test: Test B flooded paddy test, barnyardgrass; conditions: 336 h, read-out: Plant response rating, Barnyardgrass

Compound: Cc1cc(C)c(N2CCC3(CCCCC3)C2=O)cc1NS(=O)(=O)C(F)(F)F [Compound 278, N-[2,4-Dimethyl-5-(1-oxo-2-azaspiro[4.5]dec-2-yl)phenyl]-1,1,1-trifluoromethanesulfonamide]
- pest or weed control at 500 g/ha ([1]; read-out: Barnyardgrass plant response rating): 100%
- pest or weed control at 125 g/ha ([1]; read-out: Plant response rating, Barnyardgrass): 60%
- pest or weed control at 500 g/ha ([2]; read-out: Kochia plant response rating): 100%
- pest or weed control at 125 g/ha ([2]; read-out: Plant response rating, Kochia): 90%
- pest or weed control at 125 g/ha ([3]; read-out: Plant response rating, Ragweed): 90%
- pest or weed control at 500 g/ha ([3]; read-out: Ragweed plant response rating): 100%
- pest or weed control at 125 g/ha ([4]; read-out: Plant response rating, Ryegrass, Italian): 100%
- pest or weed control at 500 g/ha ([4]; read-out: Ryegrass, Italian plant response rating): 100%
- pest or weed control at 500 g/ha ([5]; read-out: Foxtail, Giant plant response rating): 100%
- pest or weed control at 125 g/ha ([5]; read-out: Plant response rating, Foxtail, Giant): 60%
- pest or weed control at 125 g/ha [6]: 20%
- pest or weed control at 500 g/ha [6]: 80%
- pest or weed control at 125 g/ha [7]: 30%
- pest or weed control at 500 g/ha [7]: 70%
- pest or weed control at 125 g/ha [8]: 40%
- pest or weed control at 500 g/ha [8]: 60%
- pest or weed control at 125 g/ha [9]: 30%
- pest or weed control at 500 g/ha [9]: 80%
- pest or weed control at 125 g/ha [10]: 0%
- pest or weed control at 500 g/ha [10]: 20%
- pest or weed control at 125 g/ha [11]: 60%
- pest or weed control at 500 g/ha [11]: 90%
- plant injury at 125 g/ha [12]: 60%
- plant injury at 500 g/ha [12]: 70%
- plant injury at 125 g/ha [13]: 0%
- plant injury at 500 g/ha [13]: 30%
- pest or weed control at 125 g/ha [14]: 0%
- pest or weed control at 500 g/ha [14]: 50%
- pest or weed control at 125 g/ha [15]: 90%
- pest or weed control at 500 g/ha [15]: 90%
- plant injury at 250 g/ha [16]: 15%
- pest or weed control at 250 g/ha [17]: 85%
- pest or weed control at 250 g/ha [18]: 0%
